Data on one molecule can be found in BindingDB's records for doi:10.1021/jm00051a016 (University of Michigan, 1995).

Assay [1] addresses T1, Mu-type opioid receptor (Cavia porcellus, UniProt P97266). Briefly: Agonist activity was assessed in an guinea pig ileum (GPI) smooth muscle bioassay.
The target of assay [2] is T1, Mu-type opioid receptor. Briefly: Binding affinity against mu opioid receptor using [3H]DAMGO in guinea pig ileum.

T1 sequence (P97266 whole entry): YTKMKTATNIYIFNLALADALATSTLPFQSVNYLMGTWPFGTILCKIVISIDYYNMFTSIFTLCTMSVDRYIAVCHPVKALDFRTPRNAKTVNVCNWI

As for `CN1C(=O)[C@H](CS)N(C(=O)[C@@H](N)Cc2ccc(O)cc2)C(=O)[C@@H](C(C)(C)S)NC(=O)[C@@H]1Cc1ccccc1` [4-[2-Amino-3-(4-hydroxy-phenyl)-propionyl]-9-benzyl-3-mercaptomethyl-6-(1-mercapto-1-methyl-ethyl)-1-methyl-[1,4,7]triazonane-2,5,8-trione], the concentration for half-maximal inhibition (IC50) – broadly, the point on the concentration scale where inhibition reaches its midpoint – on Mu-type opioid receptor [1] is > 30 µM. Moreover, the Ki (as a rule, the dissociation constant of the complex between target and ligand, obtained from inhibition or displacement) on Mu-type opioid receptor [2] was > 10 µM.
